Test results taken from BindingDB's records for doi:10.1016/S0960-894X(96)00563-X (1996).

Target: Tachykinin NK1 receptor (Bos taurus)
Experiment: Binding affinity against NK1 receptor by displacement of [3H]SP from bovine retina membranes

Q: For `Cc1cc(C)cc(C(=O)N2CC[C@H](NCc3ccnc4ccccc34)C[C@H]2Cc2ccc(C(N)=O)cc2)c1` [4-{(2R,4S)-1-(3,5-Dimethyl-benzoyl)-4-[(quinolin-4-ylmethyl)-amino]-piperidin-2-ylmethyl}-benzamide], which IC50 is on record?
A: The IC50 was 100 nM.

Q: With `Cc1cc(C)cc(C(=O)N2CC[C@H](NCc3ccnc4ccccc34)C[C@H]2Cc2ccc(C#N)cc2)c1` [4-{(2R,4S)-1-(3,5-Dimethyl-benzoyl)-4-[(quinolin-4-ylmethyl)-amino]-piperidin-2-ylmethyl}-benzonitrile] as the compound, how does the IC50 read?
A: The IC50 was 21 nM.

Q: For `Cc1cc(C)cc(C(=O)N2CC[C@H](NCc3ccnc4ccccc34)C[C@H]2Cc2ccc(C(F)(F)F)cc2)c1` [(3,5-Dimethyl-phenyl)-[(2R,4S)-4-[(quinolin-4-ylmethyl)-amino]-2-(4-trifluoromethyl-benzyl)-piperidin-1-yl]-methanone], which IC50 is on record?
A: The IC50 was 11 nM.

Q: `COc1cccc(C[C@@H]2C[C@@H](NCc3ccnc4ccccc34)CCN2C(=O)c2cc(C)cc(C)c2)c1` [(3,5-Dimethyl-phenyl)-{(2R,4S)-2-(3-methoxy-benzyl)-4-[(quinolin-4-ylmethyl)-amino]-piperidin-1-yl}-methanone] was tested. Which IC50 did it give?
A: Its IC50 is 27 nM.

Q: How did the IC50 turn out when `COc1ccc(C[C@@H]2C[C@@H](NCc3ccnc4ccccc34)CCN2C(=O)c2cc(C)cc(C)c2)cc1` [(3,5-Dimethyl-phenyl)-{(2R,4S)-2-(4-methoxy-benzyl)-4-[(quinolin-4-ylmethyl)-amino]-piperidin-1-yl}-methanone] was run?
A: The IC50 was 14 nM.

Q: How did the IC50 turn out when `Cc1cc(C)cc(C(=O)N2CC[C@H](NCc3ccnc4ccccc34)C[C@H]2Cc2ccc([N+](=O)[O-])cc2)c1` [(3,5-Dimethyl-phenyl)-{(2R,4S)-2-(4-nitro-benzyl)-4-[(quinolin-4-ylmethyl)-amino]-piperidin-1-yl}-methanone] was run?
A: The IC50 was 3 nM.

Q: Which IC50 does the source give for `Cc1cc(C)cc(C(=O)N2CC[C@H](NCc3ccnc4ccccc34)C[C@H]2Cc2ccc3ccccc3c2)c1` [(3,5-Dimethyl-phenyl)-{(2R,4S)-2-naphthalen-2-ylmethyl-4-[(quinolin-4-ylmethyl)-amino]-piperidin-1-yl}-methanone] here?
A: The IC50 was 14 nM.

Q: Which IC50 does the source give for `Cc1cc(C)cc(C(=O)N2CC[C@H](NCc3ccnc4ccccc34)C[C@H]2CCc2ccccc2)c1` [(3,5-Dimethyl-phenyl)-{(2R,4S)-2-phenethyl-4-[(quinolin-4-ylmethyl)-amino]-piperidin-1-yl}-methanone] here?
A: Its IC50 is 190 nM.

Q: `Cc1cc(C)cc(C(=O)N2CC[C@H](NCc3ccnc4ccccc34)C[C@H]2Cc2ccc(Cl)cc2Cl)c1` [{(2R,4S)-2-(2,4-Dichloro-benzyl)-4-[(quinolin-4-ylmethyl)-amino]-piperidin-1-yl}-(3,5-dimethyl-phenyl)-methanone] was tested. Which IC50 did it give?
A: Its IC50 is 600 nM.

Q: For `Cc1cc(C)cc(C(=O)N2CC[C@H](NCc3ccnc4ccccc34)C[C@H]2Cc2ccc(Cl)c(Cl)c2)c1` [{(2R,4S)-2-(3,4-Dichloro-benzyl)-4-[(quinolin-4-ylmethyl)-amino]-piperidin-1-yl}-(3,5-dimethyl-phenyl)-methanone], which IC50 is on record?
A: The IC50 was 9 nM.

Q: `Cc1cc(C)cc(C(=O)N2CC[C@H](NCc3ccnc4ccccc34)C[C@H]2Cc2cc(Br)cc(Br)c2)c1` [{(2R,4S)-2-(3,5-Dibromo-benzyl)-4-[(quinolin-4-ylmethyl)-amino]-piperidin-1-yl}-(3,5-dimethyl-phenyl)-methanone] was tested. Which IC50 did it give?
A: The IC50 was 52 nM.

Q: Which IC50 does the source give for `Cc1cc(C)cc(C(=O)N2CC[C@H](NCc3ccnc4ccccc34)C[C@H]2Cc2ccc(Cl)cc2)c1` [{(2R,4S)-2-(4-Chloro-benzyl)-4-[(quinolin-4-ylmethyl)-amino]-piperidin-1-yl}-(3,5-dimethyl-phenyl)-methanone] here?
A: The IC50 was 13 nM.
